Values of other authors in patent US20020136782A1, “Composition patent for solid-dosage form of weight loss product” (priority 2001, published 2002).

Details: non-toxic dose; equivalent doses

Substance	chromosome damage
Chromium picolinate	significant chromosome damage
chromium polynicotinate	did not cause chromosome damage
